This note sets out measurements from patent publication US11014911B2, “CDK2 inhibitors” (Pfizer Inc., priority 2019, dated 2021).

Each structure is given as a SMILES string.

Sequence of GSK3β (H350L) (P49841 whole entry, stated change not applied): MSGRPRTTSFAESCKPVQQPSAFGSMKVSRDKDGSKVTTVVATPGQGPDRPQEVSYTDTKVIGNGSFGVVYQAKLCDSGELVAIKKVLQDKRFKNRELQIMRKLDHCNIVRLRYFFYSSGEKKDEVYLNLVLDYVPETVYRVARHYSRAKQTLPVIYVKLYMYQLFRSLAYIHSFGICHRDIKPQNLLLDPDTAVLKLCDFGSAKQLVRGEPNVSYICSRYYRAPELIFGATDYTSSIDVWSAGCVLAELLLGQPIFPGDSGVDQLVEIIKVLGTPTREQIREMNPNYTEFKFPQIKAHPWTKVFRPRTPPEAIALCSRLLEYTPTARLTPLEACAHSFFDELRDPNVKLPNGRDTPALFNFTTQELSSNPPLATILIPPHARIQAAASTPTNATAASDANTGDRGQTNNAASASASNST

One assay concerns the target GSK3β (H350L) (Homo sapiens (Human), UniProt P49841).
Assay: not given
Particulars: read-out: GSK3β Ki.
`COCc1cc(C(=O)Nc2cc([C@H]3CC[C@@H](OC(=O)NC(C)(C)C)C3)[nH]n2)n(C)n1` [Example 111]: the Ki came to 772 nM.

With `Cn1cc(CC(=O)Nc2cc([C@H]3CC[C@@H](OC(=O)NC(C)(C)C)C3)[nH]n2)cn1` [Example 112], the Ki worked out at 40.2 nM.

On to `Cc1ncc(CC(=O)Nc2cc([C@H]3CC[C@@H](OC(=O)NC(C)(C)C)C3)[nH]n2)s1` [Example 113], for which the Ki stood at 11.1 nM.

Consider `COc1ccc(CC(=O)Nc2cc([C@H]3CC[C@@H](OC(=O)NC(C)(C)C)C3)[nH]n2)cn1` [Example 114], for which the Ki worked out at 5.65 nM.

Consider `Cc1ncc(CC(=O)Nc2cc([C@H]3CC[C@@H](OC(=O)NC4(C)CCCC4)C3)[nH]n2)s1` [Example 116], for which the Ki is 8.86 nM.

Regarding `CC1(NC(=O)O[C@@H]2CC[C@H](c3cc(NC(=O)Cc4ccno4)n[nH]3)C2)CCCC1` [Example 117], the Ki came to 15.9 nM.

On to `Cc1cnc(CC(=O)Nc2cc([C@H]3CC[C@@H](OC(=O)NC4(C)CCC4)C3)[nH]n2)o1` [Example 118], for which the inhibition constant (Ki) was 17.8 nM.

For the compound `Cn1cc(CC(=O)Nc2cc([C@H]3CC[C@@H](OC(=O)NC4(C)CCC4)C3)[nH]n2)cn1` [Example 119], the Ki amounted to 19.3 nM.

As to `CC1(NC(=O)O[C@@H]2CC[C@H](c3cc(NC(=O)Cc4ccno4)n[nH]3)C2)CC1` [Example 128], the Ki was 55.4 nM.

With `CC1(NC(=O)O[C@@H]2CC[C@H](c3cc(NC(=O)Cc4cc(Cl)ccn4)n[nH]3)C2)CC1` [Example 129], the inhibitory constant (Ki) turned out to be 31.6 nM.

With `Cc1cc(CC(=O)Nc2cc([C@H]3CC[C@@H](OC(=O)N4CCCCC4(C)C)C3)[nH]n2)on1` [Example 133], the Ki is 7 nM.

`Cc1cc(CC(=O)Nc2cc([C@H]3CC[C@@H](OC(=O)N4CCCC4(C)C)C3)[nH]n2)on1` [Example 134]: the Ki was found to be 7.12 nM.

For the compound `CC1(C)CCCN1C(=O)O[C@@H]1CC[C@H](c2cc(NC(=O)Cc3ccon3)n[nH]2)C1` [Example 135], the inhibition constant (Ki) turned out to be 11.7 nM.

`Cn1ccc(CC(=O)Nc2cc([C@H]3CC[C@@H](OC(=O)N4CCCC4(C)C)C3)[nH]n2)n1` [Example 136]: the Ki was 8.22 nM.

`CC1(C)CCCN1C(=O)O[C@@H]1CC[C@H](c2cc(NC(=O)Cc3cnc4ncnn4c3)n[nH]2)C1` [Example 137]: the inhibition constant Ki turned out to be 6.07 nM.

Regarding `CC1(C)CCCN1C(=O)O[C@@H]1CC[C@H](c2cc(NC(=O)Cc3cnco3)n[nH]2)C1` [Example 138], the Ki was determined as 7.06 nM.

On to `Cc1ncc(CC(=O)Nc2cc([C@H]3CC[C@@H](OC(=O)N4CCC[C@@H]4C)C3)[nH]n2)s1` [Example 139], for which the Ki worked out at 8.48 nM.

With `C[C@H]1CCCN1C(=O)O[C@@H]1CC[C@H](c2cc(NC(=O)Cc3cnc4ncnn4c3)n[nH]2)C1` [Example 141], the Ki was found to be 5.75 nM.

For the compound `CC1(C)CCN1C(=O)O[C@@H]1CC[C@H](c2cc(NC(=O)Cc3ccccc3S(C)(=O)=O)n[nH]2)C1` [Example 142], the Ki amounted to 17.7 nM.

On to `CC1(C)CCN1C(=O)O[C@H]1CC[C@@H](c2cc(NC(=O)Cc3ccccc3S(C)(=O)=O)n[nH]2)C1` [Example 143], for which the inhibition constant (Ki) turned out to be 15.8 nM.

For `COc1ccc(CC(=O)Nc2cc([C@H]3CC[C@@H](OC(=O)N4CCC4(C)C)C3)[nH]n2)cn1` [Example 144], the Ki worked out at 1.26 nM.

Turning to `COc1cc(CC(=O)Nc2cc([C@H]3CC[C@@H](OC(=O)N4CCC4(C)C)C3)[nH]n2)ccn1` [Example 146], the Ki came out at 3.47 nM.

`Cc1cnc(CC(=O)Nc2cc([C@H]3CC[C@@H](OC(=O)N4CCC4(C)C)C3)[nH]n2)o1` [Example 147]: the Ki came out at 6.87 nM.

Take `Cn1cc(CC(=O)Nc2cc([C@H]3CC[C@@H](OC(=O)N4CCC4(C)C)C3)[nH]n2)cn1` [Example 148]: the Ki was 5.57 nM.

`COc1cc(CC(=O)Nc2cc([C@H]3CC[C@@H](OC(=O)N4[C@@H](C)C[C@@H]4C)C3)[nH]n2)ccn1` [Example 149]: the Ki turned out to be 5.58 nM.

Turning to `Cc1cc(CC(=O)Nc2cc([C@H]3CC[C@@H](OC(=O)N4[C@@H](C)C[C@@H]4C)C3)[nH]n2)on1` [Example 150], the Ki worked out at 8.35 nM.

The target of a further assay is CDK2/Cyclin E1 full length (Homo sapiens (Human), UniProt P24941). In words: CDK2/Cyclin E1 full length mobility shift assay. The assay is classed as biochemical.
Settings: not given
With `COCc1cc(C(=O)Nc2cc([C@H]3CC[C@@H](OC(=O)NC(C)(C)C)C3)[nH]n2)n(C)n1` [Example 111], the Ki came to 0.38 nM.

For the compound `Cn1cc(CC(=O)Nc2cc([C@H]3CC[C@@H](OC(=O)NC(C)(C)C)C3)[nH]n2)cn1` [Example 112], the Ki came out at 0.15 nM.

`Cc1ncc(CC(=O)Nc2cc([C@H]3CC[C@@H](OC(=O)NC(C)(C)C)C3)[nH]n2)s1` [Example 113]: the Ki stood at 0.16 nM.

Take `COc1ccc(CC(=O)Nc2cc([C@H]3CC[C@@H](OC(=O)NC(C)(C)C)C3)[nH]n2)cn1` [Example 114]: the Ki was found to be 0.19 nM.

With `Cc1ncc(CC(=O)Nc2cc([C@H]3CC[C@@H](OC(=O)NC4(C)CCCC4)C3)[nH]n2)s1` [Example 116], the inhibition constant Ki turned out to be 0.13 nM.

With `CC1(NC(=O)O[C@@H]2CC[C@H](c3cc(NC(=O)Cc4ccno4)n[nH]3)C2)CCCC1` [Example 117], the Ki is 0.14 nM.

As for `Cc1cnc(CC(=O)Nc2cc([C@H]3CC[C@@H](OC(=O)NC4(C)CCC4)C3)[nH]n2)o1` [Example 118], the Ki was determined as 0.22 nM.

In the case of `Cn1cc(CC(=O)Nc2cc([C@H]3CC[C@@H](OC(=O)NC4(C)CCC4)C3)[nH]n2)cn1` [Example 119], the Ki turned out to be 0.13 nM.

For `CC1(NC(=O)O[C@@H]2CC[C@H](c3cc(NC(=O)Cc4ccno4)n[nH]3)C2)CC1` [Example 128], the Ki worked out at 0.15 nM.

On to `CC1(NC(=O)O[C@@H]2CC[C@H](c3cc(NC(=O)Cc4cc(Cl)ccn4)n[nH]3)C2)CC1` [Example 129], for which the Ki was 0.2 nM.

Turning to `Cc1cc(CC(=O)Nc2cc([C@H]3CC[C@@H](OC(=O)N4CCCCC4(C)C)C3)[nH]n2)on1` [Example 133], the Ki came out at 0.11 nM.

Turning to `Cc1cc(CC(=O)Nc2cc([C@H]3CC[C@@H](OC(=O)N4CCCC4(C)C)C3)[nH]n2)on1` [Example 134], the Ki is 0.12 nM.

As for `CC1(C)CCCN1C(=O)O[C@@H]1CC[C@H](c2cc(NC(=O)Cc3ccon3)n[nH]2)C1` [Example 135], the inhibitory constant (Ki) stood at 0.19 nM.

As for `Cn1ccc(CC(=O)Nc2cc([C@H]3CC[C@@H](OC(=O)N4CCCC4(C)C)C3)[nH]n2)n1` [Example 136], the Ki came to 0.22 nM.

Consider `CC1(C)CCCN1C(=O)O[C@@H]1CC[C@H](c2cc(NC(=O)Cc3cnc4ncnn4c3)n[nH]2)C1` [Example 137], for which the Ki came out at 0.09 nM.

For the compound `CC1(C)CCCN1C(=O)O[C@@H]1CC[C@H](c2cc(NC(=O)Cc3cnco3)n[nH]2)C1` [Example 138], the Ki amounted to 0.23 nM.

In the case of `Cc1ncc(CC(=O)Nc2cc([C@H]3CC[C@@H](OC(=O)N4CCC[C@@H]4C)C3)[nH]n2)s1` [Example 139], the inhibitory constant (Ki) was found to be 0.21 nM.

For `C[C@H]1CCCN1C(=O)O[C@@H]1CC[C@H](c2cc(NC(=O)Cc3cnc4ncnn4c3)n[nH]2)C1` [Example 141], the Ki worked out at 0.08 nM.

In the case of `CC1(C)CCN1C(=O)O[C@@H]1CC[C@H](c2cc(NC(=O)Cc3ccccc3S(C)(=O)=O)n[nH]2)C1` [Example 142], the Ki came out at 0.22 nM.

Consider `CC1(C)CCN1C(=O)O[C@H]1CC[C@@H](c2cc(NC(=O)Cc3ccccc3S(C)(=O)=O)n[nH]2)C1` [Example 143], for which the Ki is 0.25 nM.

For `COc1ccc(CC(=O)Nc2cc([C@H]3CC[C@@H](OC(=O)N4CCC4(C)C)C3)[nH]n2)cn1` [Example 144], the Ki stood at 0.1 nM.

Turning to `COc1cc(CC(=O)Nc2cc([C@H]3CC[C@@H](OC(=O)N4CCC4(C)C)C3)[nH]n2)ccn1` [Example 146], the Ki is 0.07 nM.

Consider `Cc1cnc(CC(=O)Nc2cc([C@H]3CC[C@@H](OC(=O)N4CCC4(C)C)C3)[nH]n2)o1` [Example 147], for which the Ki turned out to be 0.25 nM.

Take `Cn1cc(CC(=O)Nc2cc([C@H]3CC[C@@H](OC(=O)N4CCC4(C)C)C3)[nH]n2)cn1` [Example 148]: the Ki was 0.24 nM.

On to `COc1cc(CC(=O)Nc2cc([C@H]3CC[C@@H](OC(=O)N4[C@@H](C)C[C@@H]4C)C3)[nH]n2)ccn1` [Example 149], for which the Ki is 0.06 nM.

As for `Cc1cc(CC(=O)Nc2cc([C@H]3CC[C@@H](OC(=O)N4[C@@H](C)C[C@@H]4C)C3)[nH]n2)on1` [Example 150], the Ki was found to be 0.25 nM.

By Ki is commonly meant a dissociation constant, usually derived from enzyme kinetics or from competition with a known ligand.
